Measurements taken from patent US12275731B2, “Azaindole inhibitors of wild-type and mutant forms of LRRK2” (DANA-FARBER CANCER INSTITUTE, INC., priority 2018, dated 2025).

How the values were obtained:
Assay in all cases: KinomeScan profiling
Assay type in all cases: binding
[1] = biological target: T1, ABL1(H396P)-phosphorylated (Homo sapiens, UniProt P00519, H396P); details: read-out: % control
T1 construct: purchased KinomeScan®
How it was run: (§1)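 Luminescence (RLU) was converted to percent of control, with DMSO set as 100% and a reference compound as 0%. Test compounds were run at 1 μM against 468 kinases. Kinases showing below 35% of control were scored as bound.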

[2] = biological target: T2, AURKB (Homo sapiens, UniProt Q96GD4); details: read-out: % control
T2 construct: purchased KinomeScan®
How it was run: as §1

[3] = biological target: T3, FLT3(R834Q) (Homo sapiens, UniProt P36888, R834Q); details: read-out: % control
T3 sequence (P36888 27-993 R834Q): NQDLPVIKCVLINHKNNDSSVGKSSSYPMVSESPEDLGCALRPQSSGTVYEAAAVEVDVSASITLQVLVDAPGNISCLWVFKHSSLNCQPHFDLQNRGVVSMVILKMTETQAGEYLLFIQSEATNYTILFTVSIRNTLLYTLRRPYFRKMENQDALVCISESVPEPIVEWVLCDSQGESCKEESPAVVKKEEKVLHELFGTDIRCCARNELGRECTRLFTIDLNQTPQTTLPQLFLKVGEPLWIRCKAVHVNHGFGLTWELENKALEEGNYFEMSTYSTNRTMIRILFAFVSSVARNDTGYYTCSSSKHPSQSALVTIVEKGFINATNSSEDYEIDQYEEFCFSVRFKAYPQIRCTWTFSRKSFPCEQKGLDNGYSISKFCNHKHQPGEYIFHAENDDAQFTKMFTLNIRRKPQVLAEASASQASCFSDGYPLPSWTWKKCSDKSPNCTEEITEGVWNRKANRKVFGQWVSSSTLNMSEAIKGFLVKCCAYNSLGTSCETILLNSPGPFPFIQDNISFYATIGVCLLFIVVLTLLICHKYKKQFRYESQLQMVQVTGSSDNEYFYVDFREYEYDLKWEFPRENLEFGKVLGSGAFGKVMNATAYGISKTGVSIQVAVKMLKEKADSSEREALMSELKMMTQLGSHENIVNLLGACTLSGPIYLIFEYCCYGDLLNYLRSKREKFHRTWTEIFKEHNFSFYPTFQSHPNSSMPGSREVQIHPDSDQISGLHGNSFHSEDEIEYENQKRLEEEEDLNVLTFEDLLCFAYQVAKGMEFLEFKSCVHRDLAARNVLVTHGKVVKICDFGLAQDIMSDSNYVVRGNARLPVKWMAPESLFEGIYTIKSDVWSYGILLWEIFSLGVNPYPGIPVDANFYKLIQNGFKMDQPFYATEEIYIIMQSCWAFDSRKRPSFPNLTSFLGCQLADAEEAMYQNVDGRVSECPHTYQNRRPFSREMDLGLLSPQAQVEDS
How it was run: as §1

[4] = biological target: T4, TNK1 (Homo sapiens, UniProt Q13470); details: TNK1, 1 μM; read-out: % control
T4 sequence (Q13470 1-666): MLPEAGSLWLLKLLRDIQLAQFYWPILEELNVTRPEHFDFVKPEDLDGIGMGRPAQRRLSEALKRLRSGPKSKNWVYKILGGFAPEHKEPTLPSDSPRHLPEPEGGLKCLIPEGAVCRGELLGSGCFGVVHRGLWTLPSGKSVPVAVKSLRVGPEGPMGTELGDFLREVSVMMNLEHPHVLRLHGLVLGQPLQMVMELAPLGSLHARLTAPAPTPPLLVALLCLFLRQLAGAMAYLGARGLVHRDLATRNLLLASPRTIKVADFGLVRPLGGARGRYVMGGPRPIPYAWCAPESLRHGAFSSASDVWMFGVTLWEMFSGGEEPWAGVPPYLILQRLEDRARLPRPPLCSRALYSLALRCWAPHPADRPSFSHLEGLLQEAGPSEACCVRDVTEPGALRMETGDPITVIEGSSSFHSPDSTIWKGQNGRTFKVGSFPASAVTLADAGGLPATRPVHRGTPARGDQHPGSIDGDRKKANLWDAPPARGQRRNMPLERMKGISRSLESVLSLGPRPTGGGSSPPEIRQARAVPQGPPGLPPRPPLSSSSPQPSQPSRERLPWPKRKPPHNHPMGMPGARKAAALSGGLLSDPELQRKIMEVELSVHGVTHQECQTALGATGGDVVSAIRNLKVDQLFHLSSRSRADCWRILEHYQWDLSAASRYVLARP
How it was run: as §1

[5] = biological target: T5, ULK3 (Homo sapiens, UniProt Q6PHR2); details: ULK3, 1 μM; read-out: % control
T5 sequence (Q6PHR2 1-472): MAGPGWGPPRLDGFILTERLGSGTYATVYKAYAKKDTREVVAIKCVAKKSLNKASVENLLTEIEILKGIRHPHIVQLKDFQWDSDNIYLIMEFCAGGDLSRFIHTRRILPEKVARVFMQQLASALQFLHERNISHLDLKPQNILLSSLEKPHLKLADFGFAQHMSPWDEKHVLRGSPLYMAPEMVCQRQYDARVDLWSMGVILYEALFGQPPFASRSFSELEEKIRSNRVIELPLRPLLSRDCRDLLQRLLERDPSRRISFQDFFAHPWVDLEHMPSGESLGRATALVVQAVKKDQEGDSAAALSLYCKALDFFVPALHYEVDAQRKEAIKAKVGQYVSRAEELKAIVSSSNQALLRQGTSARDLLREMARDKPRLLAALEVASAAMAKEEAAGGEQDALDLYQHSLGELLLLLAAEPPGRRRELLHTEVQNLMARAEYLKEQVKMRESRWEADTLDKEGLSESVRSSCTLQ
How it was run: as §1

[6] = biological target: VPS34 (Homo sapiens, UniProt Q8NEB9); details: VPS34, 1 μM; read-out: % control
How it was run: as §1

VPS34, sequence (Q8NEB9 whole entry): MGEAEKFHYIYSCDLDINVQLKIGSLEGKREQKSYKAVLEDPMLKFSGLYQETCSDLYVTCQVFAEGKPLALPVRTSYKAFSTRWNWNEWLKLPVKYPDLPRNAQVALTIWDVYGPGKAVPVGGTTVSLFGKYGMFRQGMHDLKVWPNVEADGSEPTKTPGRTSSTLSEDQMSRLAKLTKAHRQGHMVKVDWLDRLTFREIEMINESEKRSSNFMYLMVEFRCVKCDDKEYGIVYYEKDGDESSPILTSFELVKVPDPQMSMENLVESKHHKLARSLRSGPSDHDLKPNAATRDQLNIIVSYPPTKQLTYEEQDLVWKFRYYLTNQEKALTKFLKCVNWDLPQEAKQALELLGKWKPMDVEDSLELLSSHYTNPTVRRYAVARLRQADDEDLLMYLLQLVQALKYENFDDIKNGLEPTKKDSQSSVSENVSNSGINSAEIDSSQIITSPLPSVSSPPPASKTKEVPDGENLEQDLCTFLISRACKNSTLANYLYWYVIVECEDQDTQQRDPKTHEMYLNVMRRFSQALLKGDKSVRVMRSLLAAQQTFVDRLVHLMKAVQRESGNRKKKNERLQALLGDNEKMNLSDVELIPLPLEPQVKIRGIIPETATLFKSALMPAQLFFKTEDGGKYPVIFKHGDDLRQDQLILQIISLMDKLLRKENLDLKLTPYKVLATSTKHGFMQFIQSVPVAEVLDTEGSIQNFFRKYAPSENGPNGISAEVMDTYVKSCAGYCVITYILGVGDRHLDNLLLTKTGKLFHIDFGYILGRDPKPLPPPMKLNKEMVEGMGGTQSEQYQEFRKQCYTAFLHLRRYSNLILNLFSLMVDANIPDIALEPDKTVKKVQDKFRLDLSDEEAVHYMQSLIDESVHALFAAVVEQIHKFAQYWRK
T2 sequence (Q96GD4 whole entry): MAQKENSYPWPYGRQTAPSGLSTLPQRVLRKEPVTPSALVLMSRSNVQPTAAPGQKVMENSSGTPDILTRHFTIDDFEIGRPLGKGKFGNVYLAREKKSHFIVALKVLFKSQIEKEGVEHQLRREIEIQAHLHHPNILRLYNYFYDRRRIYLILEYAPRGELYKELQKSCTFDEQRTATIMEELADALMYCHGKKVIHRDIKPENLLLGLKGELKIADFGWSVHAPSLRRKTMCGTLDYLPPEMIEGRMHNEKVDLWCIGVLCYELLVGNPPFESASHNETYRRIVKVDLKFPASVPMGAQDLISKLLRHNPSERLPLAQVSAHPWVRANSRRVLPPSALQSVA

SMILES | remaining binding at 1 µM [1] [%] | remaining binding at 1 µM [2] [%] | remaining binding at 1 µM [3] [%] | remaining binding at 1 µM [4] [%] | remaining binding at 1 µM [5] [%] | remaining binding at 1 µM [6] [%]
O=C(c1ccc(-c2cnc3[nH]cc(Cl)c3c2NC2CCCC2)cc1)N1CCC(N2CCOCC2)CC1 [Compound 101, (4-(3-chloro-4-(cyclopentylamino)-1H-pyrrolo[2,3-b]pyridin-5-yl)phenyl)(4-morpholinopiperidin-1-yl)methanone] | 100 | 100 | 75 | 50 | 92 | 100
CNc1c(-c2cnn([C@H]3CCN(C(C)=O)C[C@@H]3F)c2)cnc2[nH]cc(Cl)c12 [Compound 77, 1-((3S,4S)-4-(4-(3-chloro-4-(methylamino)-1H-pyrrolo[2,3-b]pyridin-5-yl)-1H-pyrazol-1-yl)-3-fluoropiperidin-1-yl)ethan-1-one] | 81 | 24 | 45 | 80 | 5.5 | 35
CNc1c(-c2ccc(C(=O)N3CCC(N4CCOCC4)CC3)cc2)cnc2[nH]cc(Cl)c12 [Compound 96, (4-(3-chloro-4-(methylamino)-1H-pyrrolo[2,3-b]pyridin-5-yl)phenyl)(4-morpholinopiperidin-1-yl)methanone] | 100 | 53 | 52 | 83 | 10 | 51
